Reference: patent publication US12285399B2, “Composition comprising bornyl acetate or pharmaceutically acceptable salt thereof as active ingredient for prevention or treatment of stress-related disorder” (UNIVERSITY-INDUSTRY COOPERATION GROUP OF KYUNG HEE …, priority 2019, dated 2025)

Tests used:
Assay type in all cases: in vivo, C57BL/6NTac mice
c-Fos protein = experiment: Western blot of c-Fos protein in brain (hippocampus and amygdala) of CRS model; conditions: CRS+BA group
Experimental: In order to confirm the antidepressant efficacy of bornyl acetate on the animal model of stress depression, an animal model of depression induced by chronic restrained stress (CRS) was prepared. Specifically, the animal model, 8-week-old male C57BL/6NTac mice after birth (Narabiotechnology, Korea; weight 22-24 g) had been stabilized for 1 week. A 50 ml conical tube (SPL Life sciences, Pocheon, Korea) was punched to make a hole, thereby making a restraint frame. The mice were put in the frame and restrained for 2 hours every day for 14 days. After restraint, the mice were allowed to freely ingest water and food in the home cage. The hippocampus and amygdala of the brain were excised. They were added to 200 μl of a protein lysis buffer (10 mM Tris, 0.5 mM EDTA, 0.25 M sucrose), and proteins were isolated using a grinder. The isolated protein was quantified by the Bradford method (Bio-rad, USA) using bovine serum albumin (BSA, Sigma, USA), and then 25 μg of the protein was separated by 10% sodium dodecyl sulfate-polyacrylamide gel electrophoresis (SDS-PAGE) and transferred to polyvinylidene difluoride (PVDF) membrane (Gendepot, UK). PVDF membranes were blocked in 5% skimmed milk (BD, USA) for 1 hour. […] Identification and quantitative analysis of proteins were analyzed using an imaging device ChemiDoc XRS+ (Bio-Rad). […]

Iba-1 = experiment: Immunohistochemical staining for Iba-1 (microglia activation) in brain of CRS model; conditions: hippocampus and amygdala, CRS+BA group, 100 mg/kg oral
Experimental: In order to confirm the antidepressant efficacy of bornyl acetate on the animal model of stress depression, an animal model of depression induced by chronic restrained stress (CRS) was prepared. Specifically, the animal model, 8-week-old male C57BL/6NTac mice after birth (Narabiotechnology, Korea; weight 22-24 g) had been stabilized for 1 week. A 50 ml conical tube (SPL Life sciences, Pocheon, Korea) was punched to make a hole, thereby making a restraint frame. The mice were put in the frame and restrained for 2 hours every day for 14 days. After restraint, the mice were allowed to freely ingest water and food in the home cage. Bornyl acetate (100 mg/kg) was administered orally 1 hour before induction of restraint stress every day. 14 days later, the mice were anesthetized, and 4% paraformaldehyde was perfused into the heart. Then, the mice were fixed, and the brain was excised. The excised brain was immersed in 4% paraformaldehyde and fixed at 4° C. for one more day. It was then changed to 30% sucrose, and the brain was stored at 4° C. for 3 days or more to prevent freeze damage. The brain was cut into a thickness of 30 μm using a cryocut microtome to prepare the frozen sections. […]

corticosterone = experiment: Serum stress hormone (corticosterone) ELISA in CRS model; conditions: CRS+BA group, 14 days
Experimental: In order to confirm the antidepressant efficacy of bornyl acetate on the animal model of stress depression, an animal model of depression induced by chronic restrained stress (CRS) was prepared. Specifically, the animal model, 8-week-old male C57BL/6NTac mice after birth (Narabiotechnology, Korea; weight 22-24 g) had been stabilized for 1 week. A 50 ml conical tube (SPL Life sciences, Pocheon, Korea) was punched to make a hole, thereby making a restraint frame. The mice were put in the frame and restrained for 2 hours every day for 14 days. After restraint, the mice were allowed to freely ingest water and food in the home cage. Bornyl acetate (25, 50 and 100 mg/kg) was orally administered 1 hour before inducing restrained stress every day. 14 days later, the mice were anesthetized, and the blood was collected. The blood was centrifuged at 5,000 rpm for 15 minutes to separate serum. In order to confirm the level of corticosterone, a stress hormone, in serum, an enzyme-linked immunosorbent assay (ELISA) kit (Enzo life sciences, Farmingdale, NY, USA) was used for analysis.

For `CC(=O)OC1CC2CCC1(C)C2(C)C` (centres unmarked) [BA, bornyl acetate], the “protein expression of c-Fos (CRS-induced increase)” value (c-Fos protein; amygdala) was “significantly inhibited”, the “protein expression of c-Fos (CRS-induced increase)” value (c-Fos protein; hippocampus) was “significantly inhibited” and the “activation degree of microglia immunostained by Iba-1” value (Iba-1) was “consistent”. The “level of stress hormone (corticosterone) in serum” value (corticosterone; 50 mg/kg oral) was 2869.8 pg/mL and the “level of stress hormone (corticosterone) in serum” value (corticosterone; 100 mg/kg oral) was 2202.5 pg/mL.
